The values below come from ChEMBL document CHEMBL5579815, “Novel angiogenesis inhibitors with superoxide anion radical amplification effect: Surmounting the Achilles' heels of angiogenesis inhibitors and photosensitizers” (Eur J Med Chem, 2024).

SMILES strings stand for the structures. Active and inactive are the calls of the source. The rule behind the calls is not given here. Bounds are passed on as bounds.

Data set [1] deals with SK-MEL-28. Kind of data set: Induction of apoptosis in human SK-MEL-28 cells assessed as early apoptotic cells at 1 uM preincubated for 24 hrs under hypoxic condition followed by media removal and irradiated with 650 nm 10 mW/cm2 light for 15 mins under hypoxic condition by Annexin V-FITC/propidium iodide staining based flow cytometry (reference value: 1.8%). It counts as functional.

The subject of data set [2] is A549. The data set can be described thus: Cytotoxicity against human A549 cells assessed as reduction in cell viability at 0.008 to 1 uM preincubated for 24 hrs under normoxic condition followed by media removal and irradiated with 650 nm 10 mW/cm2 light for 15 mins under normoxic condition prior to media replacement and measured after 24 hrs by MTT assay. It counts as functional, cell-based. Conditions: dose 0.008-1 µM.

For data set [3], the system named is SK-MEL-28. The data set can be described thus: Induction of apoptosis in human SK-MEL-28 cells assessed as early apoptotic cells at 2 uM preincubated for 24 hrs under hypoxic condition followed by media removal and irradiated with 650 nm 10 mW/cm2 light for 15 mins under hypoxic condition by Annexin V-FITC/propidium iodide staining based flow cytometry (reference value: 1.8%). The data set is classed as functional. In general terms: Flow cytometry measures light scatter and fluorescence of single cells or particles in a stream.

Data set [4] relates to SK-MEL-28. The data set can be described thus: Induction of apoptosis in human SK-MEL-28 cells assessed as early apoptotic cells at 2 uM preincubated for 24 hrs under normoxic condition followed by media removal and irradiated with 650 nm 10 mW/cm2 light for 15 mins under normoxic condition by Annexin V-FITC/propidium iodide staining based flow cytometry (reference value: 1.8%). The data set is classed as functional.

The subject of data set [5] is SK-MEL-28. Kind of data set: Induction of apoptosis in human SK-MEL-28 cells assessed as late apoptotic cells at 2 uM preincubated for 24 hrs under normoxic condition followed by media removal and irradiated with 650 nm 10 mW/cm2 light for 15 mins under normoxic condition by Annexin V-FITC/propidium iodide staining based flow cytometry (reference value: 1.95%). The data set is classed as functional.

Data set [6] in a line: Drug uptake in human EA.hy 926 cells at 1 uM measured after 24 hrs by flow cytometry. It counts as ADME, cell-based. The conditions noted are these: ea.hy 926, 24 h.
Data set [7] has as its system SK-MEL-28. Kind of data set: Induction of apoptosis in human SK-MEL-28 cells assessed as viable cells at 1 uM preincubated for 24 hrs under normoxic condition followed by media removal and irradiated with 650 nm 10 mW/cm2 light for 15 mins under normoxic condition by Annexin V-FITC/propidium iodide staining based flow cytometry (reference value: 93.62%). The data set is classed as functional. The conditions noted are these: SK-MEL-28, light or radiation study, read-out: Activity.

Data set [8] is described as follows: Induction of ROS generation in methanol solution assessed as increase in superoxide anion radical level by measuring fold increase in DHR123 fluorescence intensity at 10 uM irradiated with 650 nm 10 mW/cm2 light for upto 15 mins by DHR123 probe based fluorescence spectra analysis relative to control. The data set is classed as functional.
For data set [9], the system named is SK-MEL-28. Kind of data set: Induction of apoptosis in human SK-MEL-28 cells assessed as viable cells at 2 uM preincubated for 24 hrs under hypoxic condition followed by media removal and irradiated with 650 nm 10 mW/cm2 light for 15 mins under hypoxic condition by Annexin V-FITC/propidium iodide staining based flow cytometry (reference value: 93.62%). The data set is classed as functional. The conditions noted are these: SK-MEL-28, light or radiation study, read-out: Activity.

Data set [10] relates to SK-MEL-28. The data set can be described thus: Induction of apoptosis in human SK-MEL-28 cells assessed as necrotic cells at 1 uM preincubated for 24 hrs under hypoxic condition followed by media removal and irradiated with 650 nm 10 mW/cm2 light for 15 mins under hypoxic condition by Annexin V-FITC/propidium iodide staining based flow cytometry (reference value: 2.63%). The data set is classed as functional.

The test system of data set [11] is SK-MEL-28. The data set can be described thus: Induction of apoptosis in human SK-MEL-28 cells assessed as viable cells at 2 uM preincubated for 24 hrs under normoxic condition followed by media removal and irradiated with 650 nm 10 mW/cm2 light for 15 mins under normoxic condition by Annexin V-FITC/propidium iodide staining based flow cytometry (reference value: 93.62%). It counts as functional. Conditions: SK-MEL-28, light or radiation study, read-out: Activity.

Data set [12] can be described thus: Drug uptake in HEK293 cells at 1 uM measured after 24 hrs by flow cytometry. The data set is classed as ADME, cell-based. Conditions: human, hek293, 24 h.
Data set [13] is described as follows: Dark toxicity in human SK-MEL-28 cells assessed as reduction in cell viability by MTT assay. It counts as cell-based. A general note: Tetrazolium assays rely on reduction of a dye to a coloured formazan, in cell work by metabolically active cells.
Data set [14] relates to SK-MEL-28. Kind of data set: Induction of ROS generation in human SK-MEL-28 cells at 1 uM incubated for 24 hrs under normoxic condition prior to DHE addition for 30 mins followed by media removal and irradiated with 650 nm 10 mW/cm2 light for 15 mins under normoxic condition by DAPI staining based fluorescence microscopy. The data set is classed as functional, cell-based.

The test system of data set [15] is SK-MEL-28. The data set can be described thus: Induction of apoptosis in human SK-MEL-28 cells assessed as viable cells at 0.5 uM preincubated for 24 hrs under hypoxic condition followed by media removal and irradiated with 650 nm 10 mW/cm2 light for 15 mins under hypoxic condition by Annexin V-FITC/propidium iodide staining based flow cytometry (reference value: 93.62%). The conditions noted are these: SK-MEL-28, light or radiation study, read-out: Activity. The data set is classed as functional.

The nature of data set [16]: Induction of ROS generation in methanol solution assessed as reduction in DPBF absorption peak at 10 uM irradiated with 650 nm 10 mW/cm2 light for upto 9 mins by DPBF probe based UV-vis absorption spectra analysis. It counts as functional.
Data set [17] deals with SK-MEL-28. Kind of data set: Induction of apoptosis in human SK-MEL-28 cells assessed as late apoptotic cells at 1 uM preincubated for 24 hrs under normoxic condition followed by media removal and irradiated with 650 nm 10 mW/cm2 light for 15 mins under normoxic condition by Annexin V-FITC/propidium iodide staining based flow cytometry (reference value: 1.95%). It counts as functional.

The test system of data set [18] is SK-MEL-28. Kind of data set: Induction of apoptosis in human SK-MEL-28 cells assessed as late apoptotic cells at 0.5 uM preincubated for 24 hrs under hypoxic condition followed by media removal and irradiated with 650 nm 10 mW/cm2 light for 15 mins under hypoxic condition by Annexin V-FITC/propidium iodide staining based flow cytometry (reference value: 1.95%). The data set is classed as functional.

The test system of data set [19] is SK-MEL-28. The data set can be described thus: Induction of apoptosis in human SK-MEL-28 cells assessed as viable cells at 0.5 uM preincubated for 24 hrs under normoxic condition followed by media removal and irradiated with 650 nm 10 mW/cm2 light for 15 mins under normoxic condition by Annexin V-FITC/propidium iodide staining based flow cytometry (reference value: 93.62%). Conditions: SK-MEL-28, light or radiation study, read-out: Activity. It counts as functional.

Data set [20] concerns HEK293. Kind of data set: Dark toxicity in HEK293 cells assessed as reduction in cell viability at 0.078 to 10 uM by MTT assay. Conditions: human, hek293, 10 µM; dose 0.078-10 µM. The data set is classed as cell-based.
Data set [21] deals with SK-MEL-28. The data set can be described thus: Cytotoxicity against human SK-MEL-28 cells assessed as reduction in cell viability preincubated for 24 hrs under hypoxic condition followed by media removal and irradiated with 650 nm 10 mW/cm2 light for 15 mins under hypoxic condition prior to media replacement and measured after 24 hrs by MTT assay. The data set is classed as functional, cell-based. Conditions: SK-MEL-28, light or radiation study.

Data set [22] relates to SK-MEL-28. Kind of data set: Induction of apoptosis in human SK-MEL-28 cells assessed as necrotic cells at 1 uM preincubated for 24 hrs under normoxic condition followed by media removal and irradiated with 650 nm 10 mW/cm2 light for 15 mins under normoxic condition by Annexin V-FITC/propidium iodide staining based flow cytometry (reference value: 2.63%). It counts as functional.

Regarding `CCN(CC)c1ccc2nc3c4ccccc4/c(=N\CCCCCCNC(=O)c4cc(Oc5ccc(NC(=O)Nc6ccc(Cl)c(C(F)(F)F)c6)cc5)ccn4)cc-3sc2c1`, the Activity in data set [1] came out at 3.97%; in [3] it was 10.55%; in data set [4] it was 39.5%; in [5], 26.72%; in data set [10], 19.45%; in [17], 8.8%. Moreover, the Activity is on record as 7.05% in data set [18], “Non-Toxic” in [20] and 23.01% in data set [22]. In addition, the outcome in data set [2], in data set [14] and in data set [16] was Active. Moreover, the Drug uptake entry in [6] and in data set [12] was “Active” in each case. Besides, in [7], the viability at 1 µM was found to be 64.6%. The fold change (FC) in data set [8] is 6.6. Also, the viability at 2 µM in data set [9] stood at 53%; in data set [11], 27.2%. The IC50 in data set [13] is greater than 10000 nM; in data set [21], 158 nM. In addition, the viability at 0.5 µM worked out at 78.3% in data set [15] and 73.2% in [19].

In general, IC50 refers to the midpoint of a concentration-inhibition curve.
